From patent US6667161B1, “Chromogenic substrates of sialidase of bacterial, viral, protozoa, and vertebrate origin and methods of making and using the same” (Ibbex, Inc., priority 1997, dated 2003)

Columns and labels:
[1] = molecular target: purified recombinant bacterial sialidase from Salmonella T. (Salmonella typhimurium, UniProt P29768); experiment: Biochemical evaluation of chromogenic substrate with bacterial sialidase; conditions: substrate ca. 0.7 mM, 30 minutes
[2] = molecular target: viral sialidase from whole influenza virus A1PR/8/34 (Influenza A virus, UniProt P03468); experiment: Biochemical evaluation of chromogenic substrate with viral sialidase; conditions: substrate ca. 0.7 mM, 30 minutes
Sequence of viral sialidase from whole influenza virus A1PR/8/34 (P03468 whole entry, looked up): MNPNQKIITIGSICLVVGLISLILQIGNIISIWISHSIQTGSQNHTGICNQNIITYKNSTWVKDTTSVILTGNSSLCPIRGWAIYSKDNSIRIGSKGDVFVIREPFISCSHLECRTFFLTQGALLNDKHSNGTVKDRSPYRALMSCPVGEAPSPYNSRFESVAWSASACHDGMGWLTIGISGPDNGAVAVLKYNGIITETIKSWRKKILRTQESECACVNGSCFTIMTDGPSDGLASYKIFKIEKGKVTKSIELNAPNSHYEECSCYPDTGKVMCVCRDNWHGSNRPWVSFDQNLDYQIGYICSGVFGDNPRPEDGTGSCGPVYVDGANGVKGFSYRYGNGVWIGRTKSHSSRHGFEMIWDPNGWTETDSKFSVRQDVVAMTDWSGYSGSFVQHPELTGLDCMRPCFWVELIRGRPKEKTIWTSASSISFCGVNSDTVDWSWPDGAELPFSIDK
Experimental: Biochemical evaluation for the chromogenic product of viral sialidase substrate compounds. Sialidase can be obtained from, for example, purified recombinant bacterial sialidase from Salmonella T., whole influenza virus, or culture medium containing secreted human sialidase from the 2CFSME cell line. The sialidase preparation is added to a buffer of sodium acetate (0.05 to 0.5 M; pH 5.0-6.0), and the substrate compound is provided at about 0.2-1.0 mM concentration. It should be noted that numerous other examples of buffer solution may be used, including organic acids such as citrate buffers, for example, as well as inorganic buffers, including potassium, sodium, calcium, and other such salts thereof. […] The color change is readily visible. The color change can be quantitated spectrophotometrically by measuring the light absorption of the reaction mixture. […]
E. Biochemical Evaluation of a Chromogenic Substrate Product with Bacterial Sialidase and with Viral Sialidase. […] The reaction progress was quantitated by measuring the light absorption of the reaction mixture. The light absorption was measured with a spectrophotometer at 517 nm with a 1 cm path cell. In the experiment conducted with bacterial sialidase, the absorbance was measured as 2.448. In the experiment conducted with viral sialidase, the absorbance was measured as 1.168. […]

[3] = pH 6.0, 37° C., after addition of sodium hydroxide (pH>11.0)

Sequence of purified recombinant bacterial sialidase from Salmonella T. (P29768 whole entry): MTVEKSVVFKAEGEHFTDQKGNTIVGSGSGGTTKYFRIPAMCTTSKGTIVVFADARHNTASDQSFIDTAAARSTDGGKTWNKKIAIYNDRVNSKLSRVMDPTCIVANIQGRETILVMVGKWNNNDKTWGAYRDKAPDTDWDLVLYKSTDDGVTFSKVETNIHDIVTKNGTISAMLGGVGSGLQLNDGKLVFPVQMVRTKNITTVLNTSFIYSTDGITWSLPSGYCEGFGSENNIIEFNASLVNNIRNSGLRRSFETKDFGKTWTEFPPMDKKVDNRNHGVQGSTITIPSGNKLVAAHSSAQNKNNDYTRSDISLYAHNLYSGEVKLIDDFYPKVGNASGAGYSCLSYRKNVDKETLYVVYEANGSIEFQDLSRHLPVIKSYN

In the case of COC(=O)C1(Oc2cc(C)c(C3(c4cc(C(C)C)c(O)cc4C)OC(=O)c4ccccc43)cc2C(C)C)CC(OC)C(NC(C)=O)C([C@H](N)[C@H](O)CO)O1 (stereo partly shown) [Compound 9c], the “absorbance (light absorption of the reaction mixture)” value ([1]; 517 nm, 1 cm path cell, potassium acetate 0.5 M pH 6.0, 37° C., then sodium hydroxide 1.0 M) is reported as 2.448, the visible color change [1, 3] is reported as “color change to blue was readily visible” and the “absorbance (light absorption of the reaction mixture)” value ([2]; 517 nm, 1 cm path cell, potassium acetate 0.5 M pH 6.0, 37° C., then sodium hydroxide 1.0 M, reaction not allowed to proceed to completion) is reported as 1.168. The visible color change [2, 3] was “color change to blue was readily visible”.
